{
  "source": "BindingDB's records for doi:10.1021/jm051064t",
  "about": "(P. Angeletti S.P.A. (Merck Research Laboratories), 2006)",
  "assay": "Inhibition of replication of HCV 1b BK RNA in Huh7 cells",
  "data": [
    {"smiles": "O=C(NCc1ccccc1Cl)Nc1ccsc1-c1nc(C(=O)O)c(O)c(=O)[nH]1", "note": "[2-(3-(3-(2-chlorobenzyl)ureido)thiophen-2-yl)-5,6-dihydroxypyrimidine-4-carboxylic acid]", "values": [
      {"measurement": "EC50", "result": 3.1, "unit": "µM"}
    ]}
  ]
}
